Several values for one entry are separate records, joined by “and”; a condition that tells them apart may be missing. Identical values can stand only once. Inconclusive results and toxic doses are left out.
Tested on: BDF1 mice, P388 leukemia ip, median survival T/C
Assay: NCI In Vivo Anticancer Drug Screen. Data for tumor model P388 Leukemia (intraperitoneal) in B6D2F1 (BDF1) mice
Conditions: endpoint: median survival time, higher = longer survival
Method in brief: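 Each value expresses how treatment altered survival: treated-mouse outcome over vehicle-mouse outcome, both groups bearing the transplanted tumour.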

[1] = dose: 50.0 mg/kg/injection, schedule: Q01DX009 (ip), vehicle: saline with Tween-80
[2] = dose: 100.0 mg/kg/injection, schedule: Q04DX003 (ip), vehicle: saline with Tween-80
[3] = dose: 200.0 mg/kg/injection, schedule: Q04DX003 (ip), vehicle: saline with Tween-80
[4] = dose: 400.0 mg/kg/injection, schedule: Q04DX003 (ip), vehicle: saline with Tween-80
[5] = dose: 100.0 mg/kg/injection, schedule: Q01DX009 (ip), vehicle: saline with Tween-80
[6] = dose: 100.0 mg/kg/injection, schedule: Q01DX001 (ip), vehicle: saline with Tween-80
[7] = dose: 200.0 mg/kg/injection, schedule: Q01DX001 (ip), vehicle: saline with Tween-80
[8] = dose: 400.0 mg/kg/injection, schedule: Q01DX001 (ip), vehicle: saline with Tween-80
[9] = dose: 200.0 mg/kg/injection, schedule: Q01DX009 (ip), vehicle: saline with Tween-80
[10] = dose: 100.0 mg/kg/injection, schedule: Q04DX003 (ip), vehicle: saline
[11] = dose: 200.0 mg/kg/injection, schedule: Q04DX003 (ip), vehicle: saline
[12] = dose: 400.0 mg/kg/injection, schedule: Q04DX003 (ip), vehicle: saline
[13] = dose: 50.0 mg/kg/injection, schedule: Q01DX009 (ip), vehicle: saline
[14] = dose: 100.0 mg/kg/injection, schedule: Q01DX009 (ip), vehicle: saline

C1CCN[N-]C1.C1CCN[N-]C1.[Cl][Pt+2]([Cl])([Cl])[Cl]
T/C (dose: 0.78 mg/kg/injection, schedule: Q01DX009 (ip), vehicle: water): 103 % of control
T/C (dose: 1.56 mg/kg/injection, schedule: Q01DX009 (ip), vehicle: water): 112 % of control
T/C (dose: 3.12 mg/kg/injection, schedule: Q01DX009 (ip), vehicle: water): 120 % of control
T/C (dose: 6.25 mg/kg/injection, schedule: Q01DX009 (ip), vehicle: water): 106 % of control and 111 % of control
T/C (dose: 25.0 mg/kg/injection, schedule: Q04DX003 (ip), vehicle: water): 104 % of control
T/C (dose: 50.0 mg/kg/injection, schedule: Q04DX003 (ip), vehicle: water): 95 % of control

C=C1N(c2nc(Cl)nc(Cl)n2)c2ccccc2C1(C)C
T/C (dose: 12.5 mg/kg/injection, schedule: Q01DX009 (ip), vehicle: saline with Tween-80): 109 % of control and 111 % of control
T/C (dose: 25.0 mg/kg/injection, schedule: Q01DX009 (ip), vehicle: saline with Tween-80): 108 % of control and 112 % of control
T/C [1]: 116 % of control

CC1CN1c1cc(O)c(N2CC2C)cc1O (stereo unspecified)
T/C (dose: 1.32 mg/kg/injection, schedule: Q01DX009 (ip), vehicle: saline with Tween-80): 154 % of control
T/C (dose: 2.0 mg/kg/injection, schedule: Q01DX009 (ip), vehicle: saline with Tween-80): 208 % of control
T/C (dose: 2.2 mg/kg/injection, schedule: Q01DX009 (ip), vehicle: saline with Tween-80): 200 % of control
T/C (dose: 3.0 mg/kg/injection, schedule: Q01DX009 (ip), vehicle: saline with Tween-80): 187 % of control
T/C (dose: 3.3 mg/kg/injection, schedule: Q01DX009 (ip), vehicle: saline with Tween-80): 265 % of control
T/C (dose: 5.0 mg/kg/injection, schedule: Q01DX009 (ip), vehicle: saline with Tween-80): 310 % of control and 204 % of control
T/C (dose: 5.0 mg/kg/injection, schedule: Q04DX003 (ip), vehicle: saline with Tween-80): 154 % of control
T/C (dose: 7.5 mg/kg/injection, schedule: Q04DX003 (ip), vehicle: saline with Tween-80): 231 % of control
T/C (dose: 10.0 mg/kg/injection, schedule: Q01DX009 (ip), vehicle: saline with Tween-80): 90 % of control

Cc1ccc(NC(=O)Nc2ccccc2F)cc1NC(=O)Nc1ccccc1F
T/C [2]: 104 % of control
T/C [3]: 109 % of control
T/C [4]: 109 % of control

CC(C)CCC[C@@H](C)[C@H]1CC[C@H]2[C@@H]3CC[C@H]4C[C@H]5N[C@H]5C[C@]4(C)[C@H]3CC[C@]12C
T/C (dose: 50.0 mg/kg/injection, schedule: Q01DX001 (ip), vehicle: saline sonified): 100 % of control
T/C (dose: 100.0 mg/kg/injection, schedule: Q01DX001 (ip), vehicle: saline sonified): 95 % of control

OC1CCCC12CC2 (stereo unspecified)
T/C [1]: 100 % of control
T/C [5]: 102 % of control

COc1ccc(C(C)c2ccccc2)cc1 (stereo unspecified)
T/C [2]: 110 % of control
T/C [3]: 105 % of control
T/C [4]: 100 % of control

Cn1c(N)c(N=Nc2ccccc2)c(=O)[nH]c1=O
T/C [6]: 100 % of control
T/C [7]: 102 % of control
T/C [8]: 90 % of control

O=C1Cc2ccccc21
T/C [5]: 96 % of control
T/C [2]: 100 % of control and 110 % of control
T/C (dose: 177.0 mg/kg/injection, schedule: Q04DX003 (ip), vehicle: saline with Tween-80): 100 % of control
T/C [9]: 107 % of control
T/C [3]: 110 % of control
T/C (dose: 266.0 mg/kg/injection, schedule: Q04DX003 (ip), vehicle: saline with Tween-80): 104 % of control and 109 % of control
T/C (dose: 600.0 mg/kg/injection, schedule: Q04DX003 (ip), vehicle: saline with Tween-80): 104 % of control and 122 % of control

C[C@@H]1C[C@@]2(O[C@@H]2C)C(=O)O[C@@H]2CCN3CC=C(COC(=O)[C@]1(C)O)[C@H]23
T/C (dose: 20.0 mg/kg/injection, schedule: Q01DX010 (ip), vehicle: carboxymethylcellulose (CMC)): 110 % of control
T/C (dose: 40.0 mg/kg/injection, schedule: Q01DX010 (ip), vehicle: carboxymethylcellulose (CMC)): 100 % of control

N=C(N)c1cn(C2OC(CO)C(O)C2O)c2ncnc(N)c12 (stereo unspecified)
T/C (dose: 0.44 mg/kg/injection, schedule: Q01DX009 (ip), vehicle: saline): 156 % of control
T/C (dose: 0.44 mg/kg/injection, schedule: Q04DX003 (ip), vehicle: saline): 102 % of control
T/C (dose: 0.66 mg/kg/injection, schedule: Q01DX009 (ip), vehicle: saline): 164 % of control
T/C (dose: 0.66 mg/kg/injection, schedule: Q04DX003 (ip), vehicle: saline): 109 % of control
T/C (dose: 1.0 mg/kg/injection, schedule: Q01DX009 (ip), vehicle: Klucel (hydroxypropylcellulose) (HPC)): 160 % of control
T/C (dose: 1.0 mg/kg/injection, schedule: Q01DX009 (ip), vehicle: saline): 162 % of control
T/C (dose: 1.0 mg/kg/injection, schedule: Q04DX003 (ip), vehicle: saline): 100 % of control
T/C (dose: 1.5 mg/kg/injection, schedule: Q01DX009 (ip), vehicle: saline): 173 % of control
T/C (dose: 3.13 mg/kg/injection, schedule: Q01DX009 (ip), vehicle: saline): 202 % of control
T/C (dose: 6.25 mg/kg/injection, schedule: Q04DX003 (ip), vehicle: saline): 154 % of control
T/C (dose: 8.0 mg/kg/injection, schedule: Q01DX009 (ip), vehicle: Klucel (hydroxypropylcellulose) (HPC)): 90 % of control and 105 % of control
T/C (dose: 12.5 mg/kg/injection, schedule: Q01DX009 (ip), vehicle: saline): 86 % of control
T/C (dose: 12.5 mg/kg/injection, schedule: Q04DX003 (ip), vehicle: saline): 177 % of control
T/C (dose: 16.5 mg/kg/injection, schedule: Q04DX003 (ip), vehicle: saline): 159 % of control and 181 % of control
T/C (dose: 25.0 mg/kg/injection, schedule: Q04DX003 (ip), vehicle: saline): 181 % of control and 190 % of control
T/C (dose: 37.5 mg/kg/injection, schedule: Q04DX003 (ip), vehicle: saline): 181 % of control

COc1ncnc2nc[nH]c12
T/C [5]: 95 % of control
T/C [2]: 100 % of control
T/C [9]: 91 % of control
T/C [3]: 109 % of control
T/C (dose: 400.0 mg/kg/injection, schedule: Q01DX009 (ip), vehicle: saline with Tween-80): 86 % of control
T/C [4]: 95 % of control

CC(C)=CCO
T/C [10]: 100 % of control
T/C [11]: 104 % of control
T/C [12]: 104 % of control

CCOC(O)C(Cl)(Cl)Cl (stereo unspecified)
T/C [6]: 100 % of control
T/C [7]: 100 % of control
T/C [8]: 100 % of control

CCn1c2ccc(N)cc2c2c3[nH]c(=O)c4cccn4c3ccc21
T/C (dose: 100.0 mg/kg/injection, schedule: Q04DX002 (ip), vehicle: saline with Tween-80): 100 % of control
T/C (dose: 200.0 mg/kg/injection, schedule: Q04DX002 (ip), vehicle: saline with Tween-80): 92 % of control

CCOC(=O)C(C)(OCC)OCC
T/C [13]: 105 % of control
T/C [14]: 110 % of control
T/C (dose: 100.0 mg/kg/injection, schedule: Q01DX009 (ip), vehicle: water): 98 % of control
T/C [10]: 100 % of control
T/C (dose: 100.0 mg/kg/injection, schedule: Q04DX003 (ip), vehicle: water): 104 % of control
T/C (dose: 200.0 mg/kg/injection, schedule: Q01DX009 (ip), vehicle: saline): 115 % of control
T/C (dose: 200.0 mg/kg/injection, schedule: Q01DX009 (ip), vehicle: water): 101 % of control
T/C [11]: 91 % of control
T/C (dose: 200.0 mg/kg/injection, schedule: Q04DX003 (ip), vehicle: water): 95 % of control
T/C [12]: 91 % of control
T/C (dose: 400.0 mg/kg/injection, schedule: Q04DX003 (ip), vehicle: water): 100 % of control

Cc1ccn2c(CCc3nnc4cc(C)ccn34)nnc2c1
T/C [1]: 90 % of control
T/C [5]: 93 % of control
T/C [9]: 106 % of control

CN(C)c1ccccc1.[C-]#[O+].[C-]#[O+].[C-]#[O+].[Cr]
T/C [2]: 91 % of control

CCOC(=O)c1ccnc2ccc(O)cc12
T/C [2]: 91 % of control
T/C [3]: 108 % of control
T/C [4]: 95 % of control

O=C(O)c1ccc(C(=O)O)c2c(C(=O)O)ccc(C(=O)O)c12
T/C (dose: 50.0 mg/kg/injection, schedule: Q04DX003 (ip), vehicle: saline with Tween-80): 95 % of control
T/C [2]: 95 % of control
T/C [3]: 90 % of control

O=C1N(c2ccccc2)CCC12CCNCC2
T/C [13]: 94 % of control
T/C [14]: 94 % of control

Cc1c(C/C(=N/O)C(=O)O)[nH]c(=S)[nH]c1=O
T/C [2]: 100 % of control
T/C [3]: 87 % of control
T/C [4]: 100 % of control

CCCN([Si](C)(C)C)[Si](C)(C)C
T/C [1]: 107 % of control
T/C [5]: 107 % of control
T/C [2]: 100 % of control
T/C [9]: 100 % of control
T/C [3]: 104 % of control

— PubChem BioAssay AID328 (DTP/NCI, 2004)
